Results as given in article PMC4403932 (Journal of Medicinal Chemistry, 2015).
Values joined by “and” are separate entries in the source; they are usually repeats but may differ in a detail not shown here. Equal values may be shown once. Read-outs that look alike come from different tables or passages of the source.

Experiments:
Format in all cases: binding
BRD4(1) [1] = biological target: T1, BRD4(1) (Homo sapiens, UniProt O60885); assay: Isothermal titration calorimetry, BRD4(1); conditions: for Kd / TΔS / ΔG / N (stoichiometry) / ΔHobs: ITC; for LE (ligand efficiency): LE = ΔG/N, N number of non-hydrogen atoms
T1 construct: made in house
Protocol: (§1) Experiments were carried out on an ITC200 titration microcalorimeter from MicroCal, LLC (GE Healthcare) equipped with a Washing module, with a cell volume of 0.2003 mL, and a 40 μL microsyringe. Experiments were carried out at 15 °C while stirring at 1000 rpm, in ITC buffer (50 mM HEPES, pH 7.5 (at 25 °C), 150 mM NaCl). The microsyringe was loaded with a solution of the protein sample (300−740 μM protein for BRD9 and BRD4(1), respectively, in ITC buffer) and was carefully inserted into the calorimetric cell which was filled with an amount of the ligand (0.2 mL, 20–25 μM in ITC buffer). The system was first allowed to equilibrate until the cell temperature reached 15 °C, and an additional delay of 60 s was applied. All titrations were conducted using an initial control injection of 0.3 μL followed by 38 identical injections of 1 μL with a duration of 2 s (per injection) and a spacing of 120 s between injections. The titration experiments were designed in such a fashion as to ensure complete saturation of the proteins before the final injection. The heat of dilution for the proteins was independent of their concentration and corresponded to the heat observed from the last injection, following saturation of ligand binding, thus facilitating the estimation of the baseline of each titration from the last injection. The collected data were corrected for protein heats of dilution (measured on separate experiments by titrating the proteins into ITC buffer) and deconvoluted using the MicroCal Origin software supplied with the instrument to yield enthalpies of binding (ΔH) and binding constants (KB) in the same fashion as that previously described in detail by Wiseman and co-workers.[66] Thermodynamic parameters were calculated using the basic equation of thermodynamics (ΔG = ΔH – TΔS = −RT ln KB, where ΔG, ΔH, and ΔS are the changes in free energy, enthalpy, and entropy of binding, respectively). In all cases a single binding site model was employed, supplied with the MicroCal Origin software package.

BRD9 = biological target: T2, BRD9 (Homo sapiens, UniProt Q9H8M2); assay: Isothermal titration calorimetry, BRD9; conditions: for Kd: 50 mM HEPES pH 7.5, 150 mM NaCl, triplicate, read-out: KD; for Kd / N (stoichiometry) / ΔHobs: reverse titration; for LE (ligand efficiency): LE = ΔG/N, N number of non-hydrogen atoms
T2 construct: made in house
T2 sequence (Q9H8M2 136-240 limits assumed): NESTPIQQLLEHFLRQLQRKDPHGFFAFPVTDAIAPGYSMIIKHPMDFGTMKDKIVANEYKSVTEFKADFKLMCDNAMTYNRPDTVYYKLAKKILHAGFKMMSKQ

BRD3(1) = biological target: T3, BRD3(1) (Homo sapiens, UniProt Q15059); assay: Isothermal titration calorimetry, BRD3(1); conditions: for LE (ligand efficiency): LE = ΔG/N, N number of non-hydrogen atoms
T3 construct: Fragments were tested in a thermal shift assay against bromodomains of the BET subfamily; made in house
Protocol: as §1

BRD4(1) [2] = biological target: T1, BRD4(1); assay: Protein stability (thermal) shift assay, BRD4(1)
BRD2(1) = biological target: T4, BRD2(1) (Homo sapiens, UniProt P25440); assay: Protein stability (thermal) shift assay, BRD2(1); conditions: compound 10 μM, protein 2 μM; average of triplicate
T4 construct: Fragments were tested in a thermal shift assay against bromodomains of the BET subfamily; made in house

PCAF = biological target: T5, PCAF (Homo sapiens, UniProt Q92831); assay: Protein stability (thermal) shift assay, PCAF; conditions: compound 10 μM, protein 2 μM; average of triplicate
T5 construct: representative BRDs from other structural subfamilies (family I, PCAF); made in house
T5 sequence (Q92831 723-827 limits assumed): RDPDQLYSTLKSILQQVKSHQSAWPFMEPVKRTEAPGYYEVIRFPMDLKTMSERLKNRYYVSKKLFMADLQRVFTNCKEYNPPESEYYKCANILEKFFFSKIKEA

BRDT(1) = biological target: T6, BRDT(1) (Homo sapiens, UniProt Q58F21); assay: Protein stability (thermal) shift assay, BRDT(1); conditions: compound 10 μM, protein 2 μM; average of triplicate
T6 construct: made in house

[3] = 50 mM HEPES pH 7.5, 150 mM NaCl, 15 °C, reverse titration, triplicate, read-out: KD
[4] = read-out: dissociation constant

T3 sequence (Q15059 34-140 limits assumed): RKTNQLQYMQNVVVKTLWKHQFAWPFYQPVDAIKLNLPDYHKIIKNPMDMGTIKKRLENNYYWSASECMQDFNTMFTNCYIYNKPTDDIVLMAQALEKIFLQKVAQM
T4 sequence (P25440 74-180 limits assumed): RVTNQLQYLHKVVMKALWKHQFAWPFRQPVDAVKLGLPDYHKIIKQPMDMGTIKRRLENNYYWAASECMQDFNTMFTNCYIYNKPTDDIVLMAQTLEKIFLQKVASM

In the case of `COc1ccc(Br)cc1-c1nc(N)nc2[nH]cnc12` [Compound 7d, 2-Amino-6-(5-bromo-2-methoxyphenyl)-9H-purine], the Kd (BRD4(1) [1]; [3]) is reported as 4650 ± 197 nM, the TΔS (BRD4(1) [1]; 15 °C) is reported as 0.94 kcal/mol and the ΔG (BRD4(1) [1]; 15 °C) is reported as “–7.03 kcal/mol”. The “N (stoichiometry)” value (BRD4(1) [1]; 15 °C, reverse titration) was 0.99 ± 0.018, the ΔHobs (BRD4(1) [1]; 15 °C, reverse titration) was “–6.09 ± 0.14 kcal/mol” and the Kd (BRD4(1) [1]; [4]) was 4700 nM and 4650 nM. The “LE (ligand efficiency)” value (BRD4(1) [1]) was 0.37, the Kd (BRD9; ITC, 15 °C) was 397 ± 19 nM and the ΔG (BRD9; ITC, 15 °C) was “–8.45 kcal/mol”. The “N (stoichiometry)” value (BRD9; ITC, 15 °C) was 0.97 ± 0.005, the ΔHobs (BRD9; ITC, 15 °C) was “–9.63 ± 0.06 kcal/mol” and the “LE (ligand efficiency)” value (BRD9) was 0.44. The Kd (BRD3(1); ITC, 50 mM HEPES pH 7.5, 150 mM NaCl, 15 °C, reverse titration, triplicate) was 2040 ± 105 nM, the TΔS (BRD3(1); ITC, 15 °C) was 0.33 kcal/mol and the ΔG (BRD3(1); ITC, 15 °C) was “–7.50 kcal/mol”. The “N (stoichiometry)” value (BRD3(1); ITC, 15 °C, reverse titration) was 1.01 ± 0.009, the ΔHobs (BRD3(1); ITC, 15 °C, reverse titration) was “–7.17 ± 0.09 kcal/mol” and the “LE (ligand efficiency)” value (BRD3(1)) was 0.39. It also gave a ΔTm at 10 µM (BRD4(1) [2]; thermal shift, 10 μM compound, 2 μM protein, read-out: ΔTm) of 3.2 °C, a ΔTm at 10 µM (BRD2(1)) of 2.5 °C and a ΔTm at 10 µM (PCAF) of -0.45 °C. The ΔTm at 10 µM (BRDT(1)) was 0.0286 °C.
`Nc1nc(-c2cc(Br)cc3c2OCC3)c2nc[nH]c2n1` [Compound 11, 2-Amino-6-(5-bromo-2,3-dihydrobenzo[b]furan-7-yl)-9H-purine] was tested, and the Kd (BRD4(1) [1]; [3]) was 1370 ± 29 nM, the TΔS (BRD4(1) [1]; 15 °C) was 1.34 kcal/mol and the ΔG (BRD4(1) [1]; 15 °C) was “–7.73 kcal/mol”. The “N (stoichiometry)” value (BRD4(1) [1]; 15 °C, reverse titration) was 1.09 ± 0.002, the ΔHobs (BRD4(1) [1]; 15 °C, reverse titration) was “–6.39 ± 0.02 kcal/mol” and the Kd (BRD4(1) [1]; [4]) was 1400 nM and 1370 nM. For the same compound, the “LE (ligand efficiency)” value (BRD4(1) [1]) was 0.39, the Kd (BRD9; ITC, 15 °C) was 278 ± 15 nM and the TΔS (BRD9; ITC, 15 °C) was “–1.63 kcal/mol”. The ΔG (BRD9; ITC, 15 °C) was “–8.65 kcal/mol”, the “N (stoichiometry)” value (BRD9; ITC, 15 °C) was 1.03 ± 0.003 and the ΔHobs (BRD9; ITC, 15 °C) was “–10.28 ± 0.04 kcal/mol”. For the same compound, the “LE (ligand efficiency)” value (BRD9) was 0.43, the TΔS (BRD3(1); ITC, 15 °C) was 0.33 kcal/mol and the ΔG (BRD3(1); ITC, 15 °C) was “–7.50 kcal/mol”. For the same compound, the “N (stoichiometry)” value (BRD3(1); ITC, 15 °C, reverse titration) was 1.01 ± 0.009, the ΔHobs (BRD3(1); ITC, 15 °C, reverse titration) was “–7.17 ± 0.09 kcal/mol” and the “LE (ligand efficiency)” value (BRD3(1)) was 0.38. The ΔTm at 10 µM (BRD4(1) [2]; compound 10 μM, protein 2 μM, average of triplicate, read-out: ΔTm Shift, BRD4(1)) was 5.3 °C, the ΔTm at 10 µM (BRD2(1)) was 2.8 °C and the ΔTm at 10 µM (PCAF) was 0.9 °C. It also gave a ΔTm at 10 µM (BRDT(1)) of 1.7 °C.
